{"source": "patent US20230279132A1", "about": "“TREATMENT OF B CELL MALIGNANCIES” (NOVARTIS AG, priority 2020, published 2023)", "key": {"MCL": {"system": "MCL", "conditions": "cited from earlier work; for response rates: relapsed MCL, targeted therapies"}, "IL2": {"system": "IL2", "assay": "IL2 production in PBMC treated with lenalidomide", "format": "cell-based", "conditions": "72 hr lenalidomide, PBMC with and without CD3+ cells (FIG. 8)", "description": "(§1) Frozen PBMC were thawed, or fresh PBMCs were isolated. If T cells were depleted, PBMC were used for a positive depletion of CD3 using CD3 beads (Miltenyi #130-050-101). Cells were washed 1×, and incubated in unstimulated media (phenol red free/glutamax/hepes/anti-penicillin anti-streptomycin/FBS) with or without 3 μM, 1 μM or 10 μM Lenalidomide. Cells were incubated for 24 hrs or 72 hrs. The supernatant was taken and frozen for IL2 analysis. In one study, for the 72 hr culture, 100 pg/ml IL2 was added to the culture for the last 24 hrs. Primary NK cells were isolated the day of the co-culture setup. 100 μl of PBMC or pNK cells at the designated E:T ratios were transferred to the 96 well plate with the SUDHL4 cells and antibodies. The co-culture was incubated for 3 hrs or 4 hrs."}, "SUDHL4 cells": {"system": "SUDHL4 cells", "assay": "in vitro ADCC assay (Calcein AM-labeled SUDHL4 cells) with PBMC, pNK or NK3.3 effector cells", "format": "cell-based", "conditions": "for improvement in VAY736-induced ADCC with lenalidomide: 72 hr lenalidomide treatment", "description": "NK3.3 cells were collected, washed 1×, and incubated in starvation media with or without 3 uM lenalidomide. Cells were incubated for 48 hrs or 72 hrs, collected, spun down, and resuspended in assay buffer. 100 μl of NK3.3 cells at the designated E:T ratios were transferred to a 96 well plate with SUDHL4 cells and antibodies. The co-culture was incubated for 2 hrs.\nas §1\nA total of 10e6 or 4e6 SUDHL4 cells were incubated with Calcein AM for 60 minutes. Cells were then washed 2× with 30 ml of media. Cells were counted, and resuspended to 0.15 e6/ml or 0.2 e6/ml, and in one study 40 ng/ml of IL2 was added. A total of 50 μl cells were then transferred to a 96 well plate. […] Effector cells were then added to the 96 well plate. The plate was then spun in a centrifuge without the brake at 200×g for 4 min, and the co-culture was incubated for 2 hrs, 3 hrs or 4 hrs. The plate was then spun without the brake at 1500 RPM for 4 min. 100 μl of the supernatant was moved to black 96 well plates (Corning, #3904) and fluorescence was recorded with a PerkinElmer Envision plate reader."}, "DLBCL": {"system": "DLBCL", "conditions": "cited from earlier work"}, "BAFF": {"system": "BAFF", "assay": "Phase Ib study CVAY736Y2102: free BAFF", "format": "in vivo, human", "conditions": "VAY736 in combination with ibrutinib"}, "DLBCL cell line SUDHL4": {"system": "DLBCL cell line SUDHL4", "assay": "in vivo DLBCL model: SUDHL4 implanted subcutaneously into SCID mice", "conditions": "5 mg/kg or 50 mg/kg VAY736 intravenously weekly", "from_the_text": "Vehicle and rituximab were used as controls."}, "B cells [1]": {"system": "B cells", "format": "in vivo, cynomolgus monkeys", "description": "(§2) A rising single i.v. dose range finding (DRF), toxicity and TK/PD study and three repeated dose toxicity studies were performed with ianalumab in cynomolgus monkeys. B-cell levels were evaluated in the studies."}, "BAFF-R": {"target": "T1, BAFF-R (Homo sapiens, UniProt Q96RJ3)", "T1 construct": "from tissue", "assay": "Phase Ib study CVAY736Y2102: tissue receptor occupancy", "format": "in vivo", "conditions": "VAY736 doses of 3 mg/kg or above, in combination with ibrutinib"}, "mature B cell": {"system": "mature B cell", "assay": "repeat dose toxicity study in mice: healthy B-cell levels", "format": "in vivo, CD-1 mice", "description": "CD-1 mice were administered 0 mg/kg or 100 mg/kg of ianalumab by intravenous administration weekly for 13 weeks, followed by an 11 week recovery period."}, "B cells [2]": {"system": "B cells", "assay": "three repeated dose toxicity studies", "format": "in vivo, cynomolgus monkeys", "description": "as §2"}}, "note": "Read-outs that look alike come from different tables or passages of the source."}
{"compound": "Nc1cccc2c1CN(C1CCC(=O)NC1=O)C2=O", "note": "(stereo not drawn) [lenalidomide]", "values": [{"measurement": "ORR", "setting": "MCL; heavily pre-treated population, Phase II study EMERGE", "value": 28, "unit": "%"}, {"measurement": "IL2 production in PBMC", "setting": "IL2", "value": "IL2 produced by lenalidomide treatment by T cells"}, {"measurement": "ADCC with lenalidomide pretreatment", "setting": "SUDHL4 cells; NK3.3 effector cells, E:T 20:1 and 7:1, 72 hr and 48 hr pretreatment (FIGS. 5, 6)", "value": "Slight increases in ADCC"}, {"measurement": "VAY736-induced ADCC with addition of lenalidomide", "setting": "SUDHL4 cells; NK3.3 effector cells, more prominent with 72 hr pretreatment at E:T 20:1 (FIG. 2A-2B)", "value": "Increases in VAY736-induced ADCC"}, {"measurement": "VAY736-induced ADCC with lenalidomide pretreatment", "setting": "SUDHL4 cells; PBMC effector cells, 24 hrs pretreatment, E:T 2:1", "value": "only showed an enhancement at the highest concentration"}, {"measurement": "VAY736-induced ADCC with lenalidomide pretreatment", "setting": "SUDHL4 cells; PBMC effector cells, 24 hrs pretreatment, E:T 10:1", "value": "enhanced VAY736-induced ADCC"}, {"measurement": "VAY736-induced ADCC with lenalidomide pretreatment", "setting": "SUDHL4 cells; PBMC effector cells, 24 hrs pretreatment, E:T 20:1", "value": "only a slight enhancement"}, {"measurement": "improvement in VAY736-induced ADCC with lenalidomide", "setting": "SUDHL4 cells; PBMC effector cells, E:T 2:1", "value": "evident"}, {"measurement": "improvement in VAY736-induced ADCC with lenalidomide", "setting": "SUDHL4 cells; PBMC effector cells, E:T 6:1", "value": "less pronounced"}, {"measurement": "VAY736-induced ADCC with lenalidomide", "setting": "SUDHL4 cells; PBMC effector cells, 72 hr, E:T 3:1, largely dose-independent, hampered with IL2 stimulation", "value": "increased VAY736-induced ADCC"}, {"measurement": "dependence of the ADCC enhancement by lenalidomide on CD3+ T cells", "setting": "SUDHL4 cells; PBMC vs CD3+ depleted PBMC, 72 hr", "value": "dependent on the presence of CD3+ T cells"}, {"measurement": "VAY736-induced ADCC with lenalidomide pretreatment", "setting": "SUDHL4 cells; pNK cells isolated from PBMC pretreated 24 hrs, more so with 10:1 and 20:1", "value": "enhanced VAY736-induced ADCC"}, {"measurement": "VAY736-induced ADCC with lenalidomide pretreatment", "setting": "SUDHL4 cells; pNK cells, 72 hr Len pretreatment, E:T 1:1 and 1:3", "value": "enhanced VAY736-induced ADCC"}, {"measurement": "VAY736-dependent percent specific lysis of SUDHL4 cells on addition of lenalidomide", "setting": "SUDHL4 cells; various effector cells and treatment conditions", "value": "enhanced"}]}
{"compound": "blinatumomab: bispecific antibody", "values": [{"measurement": "response rates", "setting": "DLBCL; DLBCL", "value": "35-50%"}]}
{"compound": "VAY736: non-fucosylated human IgG1 kappa anti-BAFFR antibody with enhanced ADCC; heavy chain SEQ ID NO: 9, light chain SEQ ID NO: 10", "values": [{"measurement": "free BAFF", "setting": "BAFF", "value": "accumulated to steady state with no dose relationship"}, {"measurement": "tumor growth compared to the vehicle control (tumor volume measurements over time)", "setting": "DLBCL cell line SUDHL4", "value": "significantly slowed tumor growth"}, {"measurement": "tolerability", "setting": "B cells [1]; cynomolgus monkey, in vivo", "value": "well tolerated"}, {"measurement": "dose that induced depletion of B cells", "setting": "B cells [1]; single i.v. dose", "value": "≥ 0.4", "unit": "mg/kg"}, {"measurement": "tissue receptor occupancy", "setting": "BAFF-R", "value": "> 99", "unit": "%"}, {"measurement": "ADCC in the presence of VAY736", "setting": "SUDHL4 cells; effector cells PBMC, pNK cells, NK3.3 cell line", "value": "potent ADCC"}, {"measurement": "VAY736-dependent specific lysis of SUDHL4 cells, dose dependence", "setting": "SUDHL4 cells; various effector cells", "value": "dose-dependent"}, {"measurement": "mature B cell depletion", "setting": "mature B cell; 100 mg/kg intravenous weekly for 13 weeks", "value": "70-90%"}, {"measurement": "B cell levels during the recovery period", "setting": "mature B cell; 11 week recovery period after 100 mg/kg weekly for 13 weeks", "value": "recovered"}, {"measurement": "B cell depletion", "setting": "B cells [2]", "value": "B cell depletion was observed at all dose levels"}]}
{"compound": "brentuximab vedotin", "values": [{"measurement": "ORR", "setting": "DLBCL; CD30+ relapsed DLBCL", "value": 44, "unit": "%"}]}
{"compound": "C=CC(=O)N1CCC[C@@H](n2nc(-c3ccc(Oc4ccccc4)cc3)c3c(N)ncnc32)C1", "note": "[ibrutinib]", "values": [{"measurement": "treatment-related adverse effects compared to temsirolimus", "setting": "MCL; Phase III study", "value": "fewer treatment-related adverse effects"}]}
{"compound": "CC(C)C[C@H](NC(=O)[C@H](Cc1ccccc1)NC(=O)c1cnccn1)B(O)O", "note": "[bortezomib]", "values": [{"measurement": "response rates", "setting": "MCL", "value": "improved response rates"}]}
{"compound": "polatuzumab vedotin", "values": [{"measurement": "ORR", "setting": "DLBCL; in combination with rituximab and bendamustine", "value": 70, "unit": "%"}]}
{"compound": "CO[C@H]1C[C@@H]2CC[C@@H](C)[C@@](O)(O2)C(=O)C(=O)N2CCCC[C@H]2C(=O)O[C@H]([C@H](C)C[C@@H]2CC[C@@H](OC(=O)C(C)(CO)CO)[C@H](OC)C2)CC(=O)[C@H](C)/C=C(\\C)[C@@H](O)[C@@H](OC)C(=O)[C@H](C)C[C@H](C)/C=C/C=C/C=C/1C", "note": "[temsirolimus]", "values": [{"measurement": "response rates", "setting": "MCL", "value": "improved response rates"}]}
